The record followed here is patent publication US12589087B2, “Enantiomer selective action on neurotransmission” (The Board of Trustees of the Leland Stanford Junior …, priority 2021, dated 2026).

A short description of data set [1]: Pharmacokinetics of 2MeGlu and 2MeGln in mice. To be noted: 100 mg/kg IP, mouse brain; for time of peak brain concentration: for rac-2MeGln: 2MeGln. The class given is in vivo. The method, then: C57BL/6 mice (Jackson Laboratory cat. no. 000664) were administered 100 mg/kg IP. […] Whole brain was promptly dissected and one half frozen at −80° C. until homogenization in ice cold PBS (pH 7.4) using a probe ultrasonic homogenizer (Branson Sonifier 450, Power: 5, Cycle: 30%, time: 10 s) on ice. The lysate was centrifuged (2,500 g for 15 min at 4° C.) and the supernatant was assayed using Pierce BCA Protein Assay Kit (23225) using BioTek Epoch plate spectrophotometer by recording absorbance at 562 nm. Two or three 10 μL aliquots of the homogenate were transferred to a 96 well plate and extracted with 190 μL of 60% acetonitrile in water containing 10 μM GABA-d6 or 10 μM Glu-d5 and Gln-d5 as internal standards. 40 μL aliquots of the extracts were then diluted with 120 μL of acetonitrile and prepared for LC-MS/MS analysis. Brain and serum half-lives were calculated using the ‘PKNCA’ package for R. Endogenous levels of Glu, Gln and GABA were determined in the brains of mice used in the pharmacokinetics experiment. MRM transitions specific for Glu, Gln and GABA were monitored simultaneously.

A further data set relates to C57Bl/6 mice. In words: Chronic dosing behavioral tests (activity chamber, elevated plus maze, Y maze, Morris water maze, fear conditioning). Type of data set: in vivo, mouse. The following applies: for body weight, activity chamber distance, elevated plus maze open arm time, Y maze alternation, Morris water maze learning / mortality: 10 mg/kg/day IP for a month; for fear conditioning, contextual recall on Day 2: 10 mg/kg/day IP, week 4. On the procedure: Dosing: (R)-2MeGlu (10 mg/kg), (S)-2MeGlu (10 mg/kg), rac-2MeGln (10 mg/kg), and vehicle (PBS) were administered IP at 10 ml/kg dosing volume daily. The first dose was administered one week prior to behavioral tests and continued for four weeks during the behavioral testing.
Activity Chamber Open Field: The assessment took place in an Open Field Activity Arena as described above for 30 min. The Arena was cleaned with a 1% Virkon solution at the end of the trial. Activity chamber open field assessment was conducted after one week of exposure to compounds or vehicle.
Elevated Plus Maze: The maze was made of acrylonitrile butadiene styrene (ABS) plastic and had two open arms and two close arms that were 30 cm long and 5 cm wide. The center area where the open and close arms meet was 5 cm×5 cm. The open arms had 2 mm lips at the edges, and the closed arms had 15 cm opaque walls. The maze was elevated 50 cm and surrounded by privacy blinds during the test. The maze was illuminated to 7 lux using red light throughout the test. Each mouse was released in the center of the maze and given 5 min to explore the maze. Duration and frequency in each zone of the maze were recorded using Ethovision (Noldus Information Technology, Wageningen, the Netherlands) tracking software. The maze was cleaned with a 1% Virkon solution at the end of the trial. Elevated plus maze was conducted after one week of exposure to compounds or vehicle.
Y Maze Spontaneous Alternation: The Y maze is made of plastic with 3 arms in a “Y” shape. The arms are labelled as Arm A, B, and C; Arm A is 20.32 cm (L)×5 cm (W) 12.7 cm (H), Arm B and C are 15.24 cm (L)×5 cm (W), and 12.7 cm (H). The test is based on the willingness of rodents to explore a novel environment and designed to measure spontaneous alternations in rodents. Each mouse was placed in the center of the maze facing Arm B. The first entry was excluded from data analysis because the animals were led to the initial arm entry by the experimenter. Using an overhead camera, the number of arm entries and alternations were recorded for 5 minutes. An arm entry is when all four paws enter into a new arm of the maze. The apparatus was cleaned with 1% Virkon. Parameters recorded were % alternation and the total number of entries into arms. The Y maze test was conducted after two weeks of exposure to compounds or vehicle.
Morris Water Maze: During the Hidden Platform Training (HPT), mice were given 2 trials, with 1-minute inter-trial-intervals (ITIs) in a circular water tank (172 cm diameter) filled with opaque water at 22.0±1.5° C. Nontoxic tempera paint was used to make the water opaque. A circular platform (17 cm diameter) was submerged 1 cm below the water's surface and placed in one of the four quadrants of the pool (Quadrant 2). The release locations into the pool were randomly chosen to prevent spatial bias and the platform was also relocated during reversal training. We conducted 3 days of training with 2 trials each day for a total of the 6 trials prior to probe 1 (Days 1 to 3). Specifically, mice were given a maximum of 60 s to find the submerged platform per trial. […] After remaining on the platform for 15 s, mice were removed from the platform and placed in a dry cage with a paper towel. This process was repeated for 3 days. On the following day (˜24 hours after the last training trial), the platform was removed from the pool, and a 60 s probe trial was conducted. After acquiring the data for the probe trial, the platform was replaced at the same location, and the mice were given additional two trials of training. Three days (˜72 hours) after the last training trial, a second probe trial was conducted. The platform was relocated to a new quadrant (Quadrant 4) after the second probe trial, and the animals were trained in Reversal Hidden Platform Training (RHPT). The procedures for RHPT were identical to HPT and were conducted for 3 days (Days 7 to 9). A third probe trial was conducted on the following day (˜24 hr). […]

As for `CC(N)(CCC(N)=O)C(=O)O` (racemic) [rac-2MeGln, rac-2-methylglutamine], the “time of peak brain concentration” value in data set [1] stood at 25 min. Besides, in the data set on C57Bl/6 mice, the “body weight, activity chamber distance, elevated plus maze open arm time, Y maze alternation, Morris water maze learning” value (“body weight, activity chamber distance” below) is recorded as “no significant effect of treatment”; the mortality entry is on record as “no mortality”; the “fear conditioning, contextual recall on Day 2” value (from here on “fear conditioning”) is “no significant effect of treatments”.
Consider `C[C@@](N)(CCC(=O)O)C(=O)O` [(R)-2MeGlu, (R)-2-methylglutamic acid], for which, in data set [1], the maximum brain concentration came to 30 pmol/mg protein and the “time of peak brain concentration” value was at most 5 min. The half-life in data set [1] (C57BL/6) was around 1.17 h. Moreover, in the data set on C57Bl/6 mice, the “body weight, activity chamber distance” value was “no significant effect of treatment”; the mortality entry was “no mortality”; the “fear conditioning” value is “no significant effect of treatments”.
Consider `C[C@](N)(CCC(=O)O)C(=O)O` [(S)-2MeGlu, (S)-2-methylglutamic acid], for which, in data set [1], the maximum brain concentration amounted to 50 pmol/mg protein and the “time of peak brain concentration” value worked out at 25 min. In the data set with C57Bl/6 mice, the “body weight, activity chamber distance” value is “no significant effect of treatment”; the mortality entry is “no mortality”; the “fear conditioning” value was “no significant effect of treatments”.

As a reminder, the half-life is how long it takes for the measured level to halve. Low values mean fast loss, high ones slow loss.
